From patent US5750540A, “1,4-di-substituted piperidine derivatives” (Banyu Pharmaceutical Co., Ltd., priority 1995, dated 1998) come the findings set out here.

In assay [1] the target is T1, muscarinic M2 receptors (Rattus norvegicus, UniProt P10980).
T1 construct: a membrane specimen from the heart was used as the membrane specimen; from tissue; host or cells: rat heart membranes (SD rat)
T1 sequence (P10980 1-466): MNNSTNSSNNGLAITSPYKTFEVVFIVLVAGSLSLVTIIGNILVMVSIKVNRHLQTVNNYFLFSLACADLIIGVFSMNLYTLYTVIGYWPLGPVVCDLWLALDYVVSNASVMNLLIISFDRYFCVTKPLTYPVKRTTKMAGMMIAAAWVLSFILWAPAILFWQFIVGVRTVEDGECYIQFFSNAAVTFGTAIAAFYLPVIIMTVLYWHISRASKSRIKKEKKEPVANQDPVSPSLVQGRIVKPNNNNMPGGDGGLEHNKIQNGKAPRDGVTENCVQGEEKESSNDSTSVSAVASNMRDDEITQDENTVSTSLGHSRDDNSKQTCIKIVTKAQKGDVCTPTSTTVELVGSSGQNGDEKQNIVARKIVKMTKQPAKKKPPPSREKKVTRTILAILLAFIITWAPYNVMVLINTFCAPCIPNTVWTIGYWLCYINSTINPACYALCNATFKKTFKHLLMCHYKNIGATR
Put plainly: Inhibition of binding to muscarinic M2 receptors ([3H]-N-methylscopolamine, heart membrane). The following applies: 0.2 nM [3H]-N-methylscopolamine. Here is the method: The compounds of formula [I] in accordance with the present invention have a potent and selective inhibitory effect on binding to muscarinic receptors, as well as a potent and selective antagonistic effect on muscarinic receptors both in vitro and in vivo. […] In these tests, their inhibitory and antagonistic effects were expressed in terms of the dissociation constant (Ki) of each test compound which was calculated from its concentration (IC50 ) causing a 50% inhibition of the binding of a labeled ligand to muscarinic receptors. As the labeled ligand, [^3 H]-telenzepine was used for the muscarinic M1 receptors and [^3 H]-N-methylscopolamine for the muscarinic M2 and M3 receptors.
(§1) A male SD strain rat (purchased from Nippon Charles River Co., Ltd.), weighing about 250-350 g, was sacrificed, and the cerebral cortex, heart and lacrimal glands were excised. Using a Polytron (setting 5), each organ was homogenized in 5 volumes of an ice-cold buffer solution (pH 7.4) containing 50 mM tris-HCl, 5 mM magnesium chloride, 1 mM trisodium ethylenediaminetetraacetate and 20% sucrose. The resulting homogenate was centrifuged at 3,000×g at 4° C. for 15 minutes, and the supernatant was filtered through gauze and ultracentrifuged at 100,000×g at 4° C. for 45 minutes. The resulting precipitate was suspended in an ice-cold buffer solution (pH 7.4) containing 50 mM tris-HCl and 5 mM magnesium chloride (hereinafter referred briefly to as "tris buffer") and ultracentrifuged at 100,000×g at 4° C. for 45 minutes. The resulting precipitate was suspended in tris buffer so as to give a concentration of 50 mg/ml and stored at -80° C. till use. The membrane specimens so prepared were thawed prior to use and submitted to tests for the inhibition of binding to muscarinic receptors.
3) Tests for the inhibition of binding to the muscarinic M2 receptors
(§2) The nonspecific binding of [^3 H]-N-methylscopolamine to receptors was determined by the addition of 1 mM N-methylscopolamine.

Assay [2] addresses T2, M2 receptors (right atrium) (Rattus norvegicus, UniProt P10980).
T2 construct: the right atrium was excised; from tissue; host or cells: isolated rat right atrium
T2 sequence (P10980 1-466): T1 sequence (P10980 1-466)
Put plainly: Antagonism against M2 receptors in an isolated rat right atrium. The conditions noted are these: in vitro, agonist carbachol. Here is the method: 2) Tests for antagonism against the M2 receptors in an isolated rat right atrium
These tests were performed according to an ordinary method. A male SD strain rat (weighing 300-500 g) was killed by exsanguination, and the right atrium was excised. This preparation was isometrically suspended in a Magnus tube filled with 20 ml of Krebs-Henseleit nutrient solution (gassed with 95% O2 -5% CO2 and kept at 32° C.) with an initial tension of 0.5 g. The heart rate was recorded with a heart rate counter. After the preparation was equilibrated for 30 minutes, carbachol (10^-9 to 10^-6 M) was cumulatively administered from the lowermost concentration in three-fold increasing doses. Thus, a decrease in heart rate was measured to obtain a dose-response curve for the control experiment. After the preparation was washed with fresh solution to restore the heart rate, a test compound was administered thereto. Ten minutes later, carbachol was cumulatively administered again. Responses to carbachol were expressed as percentages based on the heart rate before administration of carbachol. The antagonistic potency (KB value) of the test compound (i.e., a compound in accordance with the present invention) was determined from the degree of shift of the dose-response curve obtained by treatment with the test compound.

Assay [3] deals with T3, muscarinic M3 receptor (Rattus norvegicus, UniProt P08483). Briefly: in vivo. The arrangement: from tissue; host or cells: living rat, airways. The following applies: iv, read-out: Mydriasis ED50. How it is done:
Tests for antagonism against muscarinic M3 receptor (in vivo)
3) Tests for mydriasis in rats
Five- to seven-weeks-old male rats of the Sprague-Dawley strain were anesthetized with pentobarbital (65 mg/kg, i.p.), and a cannula was inserted into the right jugular vein for purposes of drug administration. By using a graduated scale (pulilometer), pupillary responses to drugs were measured to the nearest 0.1 mm at the point of the greatest diameter. […] Responses were expressed as percentages of the maximal increase in pupil diameter induced by administration of atropine (30 μg/kg, i.v.). The ED50 value was calculated from the dose-response curve of the test compound using probit analysis and defined as the drug dose that induced 50% of the maximal response.

Assay [4] deals with T3, muscarinic M3 receptor. Briefly: Inhibition of binding to muscarinic M3 receptors ([3H]-N-methylscopolamine, lacrimal gland membrane). Also on record: a membrane specimen from the lacrimal glands was used as the membrane specimen; from tissue; host or cells: rat lacrimal gland membranes (SD rat). Here is the method:
In these tests, their inhibitory and antagonistic effects were expressed in terms of the dissociation constant (Ki) of each test compound which was calculated from its concentration (IC50 ) causing a 50% inhibition of the binding of a labeled ligand to muscarinic receptors. As the labeled ligand, [^3 H]-telenzepine was used for the muscarinic M1 receptors and [^3 H]-N-methylscopolamine for the muscarinic M2 and M3 receptors.
as §1
4) Tests for the inhibition of binding to the muscarinic M2 receptors
as §2

pKi: −log10 of the molar value.

T3 sequence (P08483 whole entry): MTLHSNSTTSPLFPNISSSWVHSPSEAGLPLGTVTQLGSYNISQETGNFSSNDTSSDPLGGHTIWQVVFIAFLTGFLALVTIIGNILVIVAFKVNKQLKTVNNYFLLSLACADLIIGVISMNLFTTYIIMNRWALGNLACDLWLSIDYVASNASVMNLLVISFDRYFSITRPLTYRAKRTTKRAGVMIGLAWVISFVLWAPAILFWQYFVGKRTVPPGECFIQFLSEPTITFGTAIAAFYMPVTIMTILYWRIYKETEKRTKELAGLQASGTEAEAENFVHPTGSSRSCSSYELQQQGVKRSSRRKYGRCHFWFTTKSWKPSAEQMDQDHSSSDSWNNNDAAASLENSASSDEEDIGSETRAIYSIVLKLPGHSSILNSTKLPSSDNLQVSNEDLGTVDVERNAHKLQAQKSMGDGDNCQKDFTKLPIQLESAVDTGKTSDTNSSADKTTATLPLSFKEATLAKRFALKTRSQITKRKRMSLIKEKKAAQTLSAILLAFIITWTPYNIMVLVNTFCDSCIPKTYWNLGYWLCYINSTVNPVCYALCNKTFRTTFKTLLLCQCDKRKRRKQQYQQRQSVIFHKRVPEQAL

One may read the pKi as −log10 of the Ki, conventionally taken in molar units. One may read the Kb as the affinity of an antagonist, worked out from how it opposes an agonist. By ED50 is commonly meant the midpoint of the dose-response relation. `CC(C)=CCCN1CCC(NC(=O)C(O)(c2ccccc2)C2CCC2)CC1` (stereo not drawn) [Example 1, N-[1-(4-methyl-3-pentenyl)-piperidin-4-yl]-2-cyclobutyl-2-hydroxy-2-phenylacetamide]: the values for the negative logarithm of the Ki (pKi) in assay [1] and in assay [4] were 6.07 and 8.05, respectively. The same molecule had a Kb in assay [2] of 1.5 µM. For the same molecule, the ED50 in assay [3] came out at 1.4 mg/kg. Further, in assay [4] (ratio of binding Ki, M1 over M3), the M1/M3 was 5.0. The M2/M3 in assay [4] (ratio of binding Ki, M2 over M3) was found to be 96.
